# Test system: bacteria
# Assay: Stabilizing effect of lysine on CPC-STPP / CPC-DV interaction (bacterial viability)
# Format: cell-based
# Conditions: PBS 100
# Text: Compositions were created to test the stabilizing effect that lysine had on the CPC and DV polymer. Mouthwashes were created according to the method of Example 1. Each sample was created with CPC and either STPP or DV. The compositions also contained varied amounts of lysine. The samples created are summarized below.
structure (smiles),measurement,setting,value
CCO [Ethanol],Bacterial Viability at pH 4.6 (%),"CPC-DV mouthwashes with varied lysine, pH 4.6",11%
same,Bacterial Viability at pH 6.0 (%),"CPC-DV mouthwashes with varied lysine, pH 6.0",19%
same,Bacterial Viability (%),CPC-STPP mouthwashes with varied lysine,23%
